Source: publication PMC7815315, “Atomic structures of respiratory complex III2, complex IV, and supercomplex III2-IV from vascular plants” (eLife, 2021)

Target: T1, VrCIII2 (complex III dimer, cytochrome bc1 complex); cytochrome b (COB) sites (Vigna radiata, UniProt E9KZM1)
T1 construct: native obligate dimer, 10 subunits per monomer, from mitochondria of etiolated hypocotyls; digitonin-extracted, amphipol A8-35; RNA-edited COB; partially purified (sucrose gradient); with Cytochrome c1, heme protein, mitochondrial; Cytochrome b-c1 complex subunit Rieske, mitochondrial; Mitochondrial-processing peptidase subunit alpha; Mitochondrial-processing peptidase subunit beta; Cytochrome b-c1 complex subunit 6; Cytochrome b-c1 complex subunit 7; Cytochrome b-c1 complex subunit 8; Cytochrome b-c1 complex subunit 9; Cytochrome b-c1 complex subunit 10
Assay: spectroscopic cytochrome c reduction at […] nm, pooled gradient fractions
Assay type: biochemical
Conditions: 100 uM reduced decylubiquinone, 100 uM equine cyt c, pH 7.8, room temperature

## CCCCCCCCCCc1c(C)c(O)c(OC)c(OC)c1O [reduced decylubiquinone]
  spectroscopic cytochrome c reduction at 550 nm, pooled gradient fractions: CIII2 respiratory activity (electron transfer from reduced decylubiquinone to cytochrome c)
